# From patent publication US20220401458A1 (Glia, LLC, priority 2019, published 2022)
# Columns and labels:
# [1] = tested on: corneal mechanical thresholds; test: Corneal mechanical threshold in rat (surrogate for effect on dry eye); assay type: in vivo; details: p<0.01 (FIG. 5)
# Procedure: In the same animal model as used in Example 1, the corneal mechanical thresholds were determined as a surrogate for effect on dry eye.
# [2] = tested on: Parkinson's disease; test: Case study Patient: Parkinson's disease symptoms during topical testosterone gel to forehead; assay type: in vivo, human
# From the text: They were diagnosed with Parkinson's in May 2016, confirmed October 2016 and April 2017 by independent DAT scans. Symptoms were bradykinesia of the legs, rigidity/stiffness, postural instability, specifically trouble with balance and falling as well as trouble with moving and walking, with peripheral neuropathy on both feet. Patient experienced no particular tremors. They also experienced chronic and increasing fatigue and loss of energy, as well as chronic head colds that would last about one week at a time every 6 weeks.
# (§1) In February 2019, symptoms continued and progressed. Patient was prescribed carbidopa/levodopa 25 mg/100 mg TID.
# [3] = Case study Patient: blood testosterone levels during topical testosterone gel to forehead; assay type: in vivo, human; details: for concentration at 2 months / concentration at 10 months: human, blood, topical, 0.14 mg
# Procedure: as §1
# Patient was maintained at these levels.
# [4] = tested on: luteinizing hormone (LH); test: Serum luteinizing hormone levels by competitive ELISA after topical administration to rat forehead; assay type: in vivo, male Sprague-Dawley rats; details: about 0.2% testosterone gel on forehead twice daily for 14 days; not statistically significant
# Procedure: (§2) Hormone Assessment: Blood was collected, stored at 4° C. overnight and spun down to collect serum. Serum was analyzed for total testosterone levels (T) and luteinizing hormone (LH) levels by competitive ELISA using commercially available kits (Enzo Life Sciences). […] All samples were run in duplicate. For assessing LH, serum was diluted 1:2 and, due to high variance, samples were run in quadruplet. Obvious outlying values were omitted and data were averaged for the final analysis.
# [5] = Serum total testosterone levels by competitive ELISA after twice daily topical administration to rat forehead; assay type: in vivo, male Sprague-Dawley rats; details: about 0.2% testosterone gel on shaved forehead twice daily for 14 days; serum 30 min after final application; one-way t-test p 0.08 (FIG. 1)
# Procedure: as §2
compound,measurement,setting,value
"C[C@]12CC[C@H]3[C@@H](CCC4=CC(=O)CC[C@@]43C)[C@@H]1CC[C@@H]2O [testosterone, 17β-hydroxyandrost-4-en-3-one]",corneal mechanical threshold pressure compared with control,[1]; 60 minutes after administration to shaved head,significantly higher
same,corneal mechanical threshold pressure compared with control,[1]; 120 minutes after administration to shaved head,significantly higher
same,increase of repetitions in exercises,"[2]; 20-month period on gel, reported by physical trainer",about 25%
same,cognitive decline,[2]; April 2020,no cognitive decline
same,sex drive compared to before start of testosterone treatment,[2]; April 2020,increased sex drive
same,strength in knees and rest of body,[2]; April 2020,increased strength
same,energy / ability to exercise,[2]; after starting the testosterone gel 0.14 mg once daily to forehead,more energetic and was able to exercise
same,progression of Parkinson's disease,"[2]; neurologist's conclusion June 2020, comparison with peer group",had not progressed
same,bioavailable testosterone,"[3]; 0.2% w/w gel once daily to forehead, 10 months",2.0 ng/dL
same,concentration at 2 months,"[3]; Free testosterone, 0.2% w/w gel once daily to forehead",0.08 pg/mL
same,concentration at 10 months,"[3]; Free testosterone, 0.2% w/w gel once daily to forehead, 10 months",1 pg/mL
same,concentration at 2 months,"[3]; Total testosterone, 0.14 mg in 0.07 g gel (0.2% w/w) once daily to forehead",140 pg/mL
same,concentration at 10 months,"[3]; Total testosterone, 0.2% w/w gel once daily to forehead, 10 months",210 pg/mL
same,increase in serum luteinizing hormone levels,[4],9%
same,increase in testosterone levels in the treated rats compared to controls,[5],42%
